# Assay results taken from patent US20110136897A1, “TOLL-LIKE RECEPTOR 9 AGONISTS FOR THE TREATMENT OF ANXIETY-RELATED DISORDERS AND INFLAMMATORY DISORDERS” (YISSUM RESEARCH DEVELOPMENT COMPANY OF THE HEBREW …, priority 2008, published 2011).
# “Also recorded” adds a separate entry of the source. In the oligonucleotide strings, read from the 5' end, every base follows the letter of its sugar. An asterisk marks phosphorothioate; unmarked linkages are phosphodiester. Other units and linkages are bracketed, terminal groups are in braces. A string of capitals states the bases alone. d = 2'-deoxy (DNA)
# Columns and labels:
# RAW264.7 cells [1] = experiment: HSP90β mRNA RT-PCR in RAW264.7 cells; format: cell-based, mouse; details: with mEN101, 24 hours
# Description: Cell cultures: The mouse macrophage cell line RAW 264.7 (ATCC, MD) was cultured in Dulbecco's modified Eagle's medium (DMEM) (Biological Industries, Israel) supplemented with 10% heat-inactivated fetal bovine serum (Biological Industries, Israel), 100 μg/ml streptomycin (Sigma), 100 U/ml penicillin (Sigma) and 2 mM 1-glutamine (Biological Industries, Israel) at 37° C. in a humidified atmosphere with 5% CO2.
# (§1) Real-time PCR (RT-PCR): RAW264.7 cells and spleen were used for RT-PCR. 1×10^6 RAW264.7 cells were grown in 2 ml medium in 6 wells plates until 80% confluence was obtained. Total RNA was extracted using the RNeasy kit (Qiagen, CA, USA). Spleen and brain tissues' RNA was extracted using the RNeasy Tissue Mini Kit (Qiagen, Germany). In all cases, total RNA was reverse-transcribed (200 ng) using Impromp-II reverse transcriptase (Promega, WI, USA) according to manufacturer's instructions. RT-PCR was performed using Power SYBR®Green PCR Master Mix (Applied Biosystems, UK) in a 7900 HT Sequence Detection System (Applied Biosystems, CA). Quantification was assessed at the logarithmic phase of the PCR reaction. The PCR annealing temperature was 60° C. for all primer pairs.
# RAW264.7 cells [2] = experiment: Nitric oxide (NO) production, Griess reaction; format: cell-based, mouse; details: with 1 μM mEN101
# HSP90β mRNA = HSP90β mRNA RT-PCR in spleen and frontal lobe of stressed mice; format: in vivo, mouse; details: co-administration with mEN101
# Description: Animals: The stress paradigm consisted of placing the test animals on well-soiled cat litter for 10 minutes (in use by the cat for 2 days, sifted for stools). Tissues were removed 4 days following exposure.
# as §1
# RAW264.7 cells [3] = experiment: Nitric oxide (NO) production, Griess reaction; format: cell-based, mouse; details: added with 10 μM mEN101
# Description: The mouse macrophage cell line RAW 264.7 (ATCC, Bethesda, Md.) was cultured in Dulbecco's modified Eagle's medium (DMEM) (Biological Industries) supplemented with 10% heat-inactivated fetal bovine serum (Biological Industries, Israel), 100 μg/ml streptomycin, 100 U/ml penicillin (Sigma) and 2 mM 1-glutamine (Biological Industries) at 37° C. in a humidified atmosphere with 5% CO2.
# Determination of nitric oxide (NO) production: Nitrite concentration in the medium of cultured cells was measured as an indicator of NO production according to the Griess reaction. 1×10^5 mouse RAW264.7 cells were grown in 0.5 ml medium in 48-wells plate until 80% confluence was obtained. […] (1% sulfanilamide, 0.1% naphthylethylenediamine dihydrochloride, 5% H3PO4). Absorbance was read at 540 nm after 10 min using SPECTRAFluor Plus spectrophotometer (TECAN, UK).
# To further characterize the TLR9 activating features of mEN101, mEN101 was applied to RAW264.7 cells (n=4 repeats) for 24 hours and the subsequent production of inflammatory markers was quantified. […] Addition of chloroquine (CQ), a weak base that perturbs endosomal pH and thus disturbs endosomal maturation, as well as the specific TLR9 inhibiting oligonucleotides ODN2088 and ODN TTAGGG (17), all blocked the 10 μM mEN101-driven increases in NO (p<0.015) (FIG. 2A). Thus, both gain and loss of function tests validated the nature of mEN101 as an endosomally active TLR9 activator, albeit a weak one.
# FVB/N mice = experiment: Predator (cat) odor stress paradigm, elevated plus maze (EPM) and acoustic startle response (ASR) one week post-exposure; format: in vivo, mouse
# Description: Animals: FVB/N or adult TLR9 −/− mice and strain-matched wild type C57/B6J mice were housed four per cage, with constant temperature (21±1° C.), a 12 hour light/dark cycle, free access to food and water and habituation to the housing conditions by daily handling. Experiments were performed 1 week after arrival in the animal facility.
# Behavioral paradigms: Mice were placed for 10 minutes on well-soiled cat litter (in use by the cat for 2 days, sifted for stools). One week after exposure, animals were tested according to Cohen et al. (2005) Biol Psychiatry 58, 640 in the elevated plus maze (EPM) and the acoustic startle response (ASR) paradigms. The EPM is a plus-shaped platform with two opposing open arms and two opposing closed arms (surrounded by 14-cm high opaque walls on three sides). Mice were placed on the central platform and were allowed to explore the maze for 5 min. […]
# Startle response was measured using two ventilated startle chambers (SR-LAB System, San Diego Instruments, San Diego, Calif.). Each Plexiglas cylinder rests on a platform inside a sound-attenuated, ventilated chamber. Startle sessions started with a 5-minute acclimatization period to a background of 68 dB white noise, followed by 30 acoustic startle stimuli (110 dB white noise of 40 ms duration with 30 s or 45 s inter-trial interval). Startle amplitude was averaged over all 30 trials, and percent habituation was calculated as the percent difference between the response to the first block of stimuli and to the last one.
# (§2) Animals were randomly divided into 5 groups. The following daily treatments initiated immediately before stressor exposure and for a total of four consecutive days: saline, 50 μg/kg ODN1826, 50 μg/kg mEN101, 50 μg/kg μg mEN101 and 500 μg/kg μg ODN2088. Oligonucleotides were delivered in 300 μl 0.9% NaCl solution (Teva, Israel). A control group was exposed to fresh, unused litter. Animals were sacrificed and brains dissected on day 1 2 h after the stressor, on day 4 2 h after the last injection, or on day 7 2 h after the behavioral tests, as noted.
# To challenge the hypothesis that TLR9 activation modulates psychological stress reactions, mice were exposed to the predator odor stress paradigm (Cohen, H., Zohar, J., Matar, M. A., Kaplan, Z. & Geva, A. B. (2005) Biol Psychiatry 58, 640-50) and treated them with TLR9 activating or blocking oligonucleotides and with a known stress-suppressing oligonucleotide, mEN101. One week post-exposure, treated mice were tested for avoidance behavior and hyper-arousal in the elevated plus maze (EPM) and acoustic startle response (ASR) tests, respectively (FIG. 1B). […] They also presented greater startle amplitude (F5,103=10.75, p<0.0001; p<0.0001) and decreased startle habituation ([…]; p<0.0001) than control mice (FIG. 1C). The traumatic experience conferred varied impacts in the exposed mice, ranging from drastically maladaptive behavior to generally unmodified response patterns.
# hippocampus = experiment: RT-PCR of anxiety-related hippocampal transcripts, 4 days following stress; format: in vivo, mouse
# Description: as §2
# Real-time PCR (RT-PCR): Brains were dissected and tissues stored frozen at −70° C. until use. Hippocampal RNA was extracted using the RNeasy Tissue Mini Kit (Qiagen, Germany). Total RNA was reverse-transcribed (200 ng) using Impromp-II reverse transcriptase (Promega, Madison, Wis.) as instructed. RT-PCR was performed using Power SYBR®Green PCR Master Mix (Applied Biosystems, UK) in a 7900 HT Sequence Detection System (Applied Biosystems, Foster City, Calif.). Quantification was assessed at the logarithmic phase of the PCR reaction. The PCR annealing temperature was 60° C. for all primer pairs. GAPDH was used as a house-keeping gene.
# The transcription factor early growth response gene 1 (egr-1) is a central mediator of inflammation and is broadly and constitutively expressed in the central nervous system (CNS). […]
# [4] = 500 μg/kg co-administered with 50 μg/kg mEN101
substance,measurement,setting,value
5′-TCCTGGCGGGGAAGT-3′ (dT*dC*dC*dT*dG*dG*dC*dG*dG*dG*dG*dA*dA*dG*dT) [ODN2088],effect on mEN101 up-regulation of HSP90β mRNA,RAW264.7 cells [1],abolished
same,effect on mEN101 effects on NO production (FIG. 2A legend),RAW264.7 cells [2],abolished
same,effect on HSP90β mRNA up-regulation,HSP90β mRNA,completely abolished; also recorded: blocked
same,effect on 10 μM mEN101-driven increases in NO,RAW264.7 cells [3],blocked
same,EPM score of co-treated mice vs mEN101-treated mice,FVB/N mice; [4],larger EPM scores
same,effect on mEN101 anxiolytic effects,FVB/N mice; [4],abolished much of the mEN101 anxiolytic effects; also recorded: abolished the mEN101-induced amelioration of anxiety-correlated behaviors
same,habituation to acoustic startle of co-treated mice vs mEN101-treated mice,FVB/N mice; [4],smaller habituation to acoustic startle
same,startle response of co-treated mice,FVB/N mice; [4],remained unchanged
same,anxiety index (AI): effect on mEN101 ameliorative effect,"FVB/N mice; co-administered with mEN101, compared to mEN101 treated mice",abolished mEN101 ameliorative effect
same,effect on mEN101-induced modulation of hippocampal genes,hippocampus; co-administration with mEN101,abolished the mEN101-induced modulation of these genes
same,"anxiety-related transcripts GABRA2, CHRNA7, ADCYAP1R1, PKCB, CHRBP and CAMK2A (FIGS. 5A-F legend)","hippocampus; co-administration with mEN101, day 4",reduced to control levels
